Key:
Type in all cases: cell-based
PfCRT^Ecu1110 [1] = biological target: T1, PfCRT^Ecu1110 (Plasmodium falciparum, UniProt Q9N623, A220S/I356L/K76T/N326D); assay: [3H]CQ uptake into Xenopus oocytes, cis-inhibition by unlabelled solute; details: for PfCRT-mediated [3H]CQ transport, cis-inhibition (% PfCRTEcu1110 control): PfCRTEcu1110 oocytes, background [3H]CQ accumulation subtracted, normalised to oocyte type control; for [3H]CQ transport (% PfCRTEcu1110 control), cis-inhibition, PfCRTEcu1110: PfCRT-mediated component (background subtracted), sheet title says normalised to PfCRTDd2 control, mean ± SEM, SEM
T1 sequence (Q9N623 whole entry A220S/I356L/K76T/N326D): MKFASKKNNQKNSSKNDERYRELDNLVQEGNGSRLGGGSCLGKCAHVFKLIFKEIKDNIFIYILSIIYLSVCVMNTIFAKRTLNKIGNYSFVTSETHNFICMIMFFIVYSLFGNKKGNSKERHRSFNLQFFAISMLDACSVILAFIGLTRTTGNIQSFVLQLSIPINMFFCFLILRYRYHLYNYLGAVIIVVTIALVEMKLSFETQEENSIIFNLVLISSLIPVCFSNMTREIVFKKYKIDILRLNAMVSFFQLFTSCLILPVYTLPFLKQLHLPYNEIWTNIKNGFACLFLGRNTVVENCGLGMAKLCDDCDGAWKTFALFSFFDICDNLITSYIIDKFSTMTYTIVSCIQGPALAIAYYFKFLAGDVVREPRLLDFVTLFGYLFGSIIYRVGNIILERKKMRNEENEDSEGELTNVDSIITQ
Text: (§1) The orientation of PfCRT in the parasite’s DV membrane, and also in the oocyte plasma membrane, is such that its N- and C-termini extend into the cytosol. The oocytes were suspended in a reaction buffer adjusted to pH 5.5 to mimic the pH of the DV lumen[1],[2]. In this scenario, the transport of a substrate via PfCRT from the acidic extracellular solution into the oocyte cytosol[15] is analogous to the parasite’s PfCRT-mediated efflux of a substrate from the acidic DV and into the cytosol. Unless specified otherwise, this is the direction in which substrate transport was measured in the oocyte assays.
(§2) Unless specified otherwise, the transport assays were conducted over 1.5 h at 27.5 °C and the reaction buffer was ND96 (96 mM NaCl, 2 mM KCl, 1 mM MgCl2, 1.8 mM CaCl2, 10 mM MES and 10 mM Tris-base) at pH 5.5.
(§3) Ten oocytes were washed twice with the relevant ND96 buffer. […] The assay was terminated by removing the reaction buffer and washing the oocytes with ice-cold ND96 buffer. The oocytes were lysed in 10% (w/v) sodium dodecyl sulfate (SDS) and the radioactivity accumulated within each oocyte was measured with a MicroBeta^2 microplate liquid scintillation analyser (PerkinElmer).
(§4) At least four independent experiments were performed (on different days and using oocytes from different frogs), and within each experiment measurements were made from ten oocytes per treatment.

PfCRT^Dd2 [2] = biological target: T2, PfCRT^Dd2 (Plasmodium falciparum, UniProt Q9N623, A220S/I356T/K76T/M74I/N326S/N75E/Q271E/R371I); assay: as above; details: PfCRTDd2 oocytes, background [3H]CQ accumulation subtracted, normalised to oocyte type control
T2 sequence (Q9N623 whole entry A220S/I356T/K76T/M74I/N326S/N75E/Q271E/R371I): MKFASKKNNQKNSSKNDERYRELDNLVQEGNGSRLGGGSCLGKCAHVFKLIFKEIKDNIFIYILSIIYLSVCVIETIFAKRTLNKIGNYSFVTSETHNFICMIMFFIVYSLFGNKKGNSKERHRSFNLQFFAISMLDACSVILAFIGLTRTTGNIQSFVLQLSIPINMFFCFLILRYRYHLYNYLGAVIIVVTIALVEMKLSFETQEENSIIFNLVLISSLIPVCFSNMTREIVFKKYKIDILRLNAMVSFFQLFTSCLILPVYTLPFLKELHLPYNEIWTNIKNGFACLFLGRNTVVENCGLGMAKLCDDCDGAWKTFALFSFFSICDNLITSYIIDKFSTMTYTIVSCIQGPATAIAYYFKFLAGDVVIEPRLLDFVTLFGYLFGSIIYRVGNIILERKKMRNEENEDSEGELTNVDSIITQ
Text: as §1, §2, §3, §4

PfCRT^Ecu1110 [3] = biological target: T1, PfCRT^Ecu1110; assay: cell-based; details: for PfCRT-mediated [3H]CQ transport, trans-stimulation (% PfCRTEcu1110 control): PfCRTEcu1110 oocytes, normalised to oocyte type control; for [3H]CQ transport (% PfCRTDd2 control), trans-stimulation, PfCRTEcu1110: PfCRT-mediated component (background subtracted), sheet title says normalised to PfCRTDd2 control, mean ± SEM, SEM
Description: as §2
(§5) The intracellular concentrations were calculated using previous estimates of the volume of stage V–VI oocytes (~400 nL[60]). […] The oocytes were injected with VF-6 suspended in 25 nL ND96 buffer adjusted to pH 5.0, 5.5, 6.0 or 7.0, which corresponded to the injection of 2.5–250 fmol of H^+. The Na^+-dependence of the trans-stimulatory effect of VF-6 was assessed by injecting the oocytes with VF-6 suspended in ND96 buffer (pH 5.5) or a Na^+-free version of this buffer (the Na^+ was replaced with choline).
as §4

PfCRT^Dd2 [4] = biological target: T2, PfCRT^Dd2; assay: cell-based; details: for PfCRT-mediated [3H]CQ transport, trans-stimulation (% PfCRTDd2 control): PfCRTDd2 oocytes, normalised to oocyte type control; for [3H]CQ transport (% PfCRTDd2 control), trans-stimulation, PfCRTDd2: PfCRT-mediated component (background subtracted), mean ± SEM, SEM
Description: as §2, §5, §4

PfCRT^3D7 = PfCRT^3D7 (Plasmodium falciparum, UniProt Q8IBZ9); assay: cell-based; details: PfCRT3D7 oocytes, normalised to oocyte type control
PfCRT^3D7, sequence (Q8IBZ9 59-398): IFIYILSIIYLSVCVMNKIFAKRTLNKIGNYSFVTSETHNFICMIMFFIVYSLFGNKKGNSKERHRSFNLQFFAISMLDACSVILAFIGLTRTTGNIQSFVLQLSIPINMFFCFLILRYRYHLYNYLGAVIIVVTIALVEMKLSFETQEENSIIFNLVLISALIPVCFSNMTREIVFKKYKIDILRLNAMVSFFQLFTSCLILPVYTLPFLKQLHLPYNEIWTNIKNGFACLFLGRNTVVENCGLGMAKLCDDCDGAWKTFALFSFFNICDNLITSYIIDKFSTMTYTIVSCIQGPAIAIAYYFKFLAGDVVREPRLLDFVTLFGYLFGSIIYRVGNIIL
Description: as §2, §5, §4

[5] = [test solute]i = 5 mM (intracellular)
[6] = [test solute]i = 45 mM (intracellular; 30 mM for some solutes due to solubility)
[7] = [test solute]i = 5 mM (injected)
[8] = [test solute]i = 45 mM (30 mM for some solutes due to solubility)

Substance | PfCRT-mediated [3H]CQ transport, cis-inhibition (% PfCRTEcu1110 control) (PfCRT^Ecu1110 [1]; [test solute] = 0.5 mM) | PfCRT-mediated [3H]CQ transport, cis-inhibition (% PfCRTEcu1110 control) (PfCRT^Ecu1110 [1]; [test solute] = 1 mM) | PfCRT-mediated [3H]CQ transport, cis-inhibition (% PfCRTEcu1110 control) (PfCRT^Ecu1110 [1]; [test solute] = 2 mM) | [3H]CQ transport (% PfCRTEcu1110 control), cis-inhibition, PfCRTEcu1110 (PfCRT^Ecu1110 [1]; [test solute] = 0.5 mM) | [3H]CQ transport (% PfCRTEcu1110 control), cis-inhibition, PfCRTEcu1110 (PfCRT^Ecu1110 [1]; [test solute] = 2 mM) | PfCRT-mediated [3H]CQ transport, cis-inhibition (% PfCRTDd2 control) (PfCRT^Dd2 [2]; [test solute] = 0.5 mM) | PfCRT-mediated [3H]CQ transport, cis-inhibition (% PfCRTDd2 control) (PfCRT^Dd2 [2]; [test solute] = 1 mM) | PfCRT-mediated [3H]CQ transport, cis-inhibition (% PfCRTDd2 control) (PfCRT^Dd2 [2]; [test solute] = 2 mM) | PfCRT-mediated [3H]CQ transport, trans-stimulation (% PfCRTEcu1110 control) (PfCRT^Ecu1110 [3]; [5]) | PfCRT-mediated [3H]CQ transport, trans-stimulation (% PfCRTEcu1110 control) (PfCRT^Ecu1110 [3]; [6]) | [3H]CQ transport (% PfCRTDd2 control), trans-stimulation, PfCRTEcu1110 (PfCRT^Ecu1110 [3]; [7]) | [3H]CQ transport (% PfCRTDd2 control), trans-stimulation, PfCRTEcu1110 (PfCRT^Ecu1110 [3]; [8]) | PfCRT-mediated [3H]CQ transport, trans-stimulation (% PfCRTDd2 control) (PfCRT^Dd2 [4]; [5]) | PfCRT-mediated [3H]CQ transport, trans-stimulation (% PfCRTDd2 control) (PfCRT^Dd2 [4]; [6]) | [3H]CQ transport (% PfCRTDd2 control), trans-stimulation, PfCRTDd2 (PfCRT^Dd2 [4]; [7]) | [3H]CQ transport (% PfCRTDd2 control), trans-stimulation, PfCRTDd2 (PfCRT^Dd2 [4]; [8]) | PfCRT-mediated [3H]CQ transport, trans-stimulation (% PfCRT3D7 control) (PfCRT^3D7; [5]) | PfCRT-mediated [3H]CQ transport, trans-stimulation (% PfCRT3D7 control) (PfCRT^3D7; [6]) | [3H]CQ transport (% PfCRTEcu1110 control), cis-inhibition, PfCRTEcu1110 (PfCRT^Ecu1110 [1]; [test solute] = 1 mM)
DPENF [DEF-5] | 41 ± 2.7 % PfCRTEcu1110 control | 28 ± 1.0 % PfCRTEcu1110 control | 18 ± 0.3 % PfCRTEcu1110 control | 13 ± 0.1 % PfCRTEcu1110 control | 6.0 ± 0.3 % PfCRTEcu1110 control | 29 ± 2.1 % PfCRTDd2 control | 20 ± 1.1 % PfCRTDd2 control | 11 ± 0.1 % PfCRTDd2 control | 122 ± 1.9 % PfCRTEcu1110 control | 137 ± 2.5 % PfCRTEcu1110 control | 37 ± 1.5 % PfCRTEcu1110 control | 41 ± 2.3 % PfCRTEcu1110 control | 100 ± 2.1 % PfCRTDd2 control | 112 ± 0.5 % PfCRTDd2 control | 100 ± 2.1 % PfCRTDd2 control | 112 ± 0.5 % PfCRTDd2 control | 129 ± 3.2 % PfCRT3D7 control | 162 ± 4.2 % PfCRT3D7 control | 
DPENFR [DR-6] | 38 ± 1.3 % PfCRTEcu1110 control | 35 ± 4.2 % PfCRTEcu1110 control | 27 ± 0.1 % PfCRTEcu1110 control |  | 9.0 ± 0.02 % PfCRTEcu1110 control | 38 ± 0.3 % PfCRTDd2 control | 30 ± 1.0 % PfCRTDd2 control | 17 ± 0.3 % PfCRTDd2 control | 118 ± 0.6 % PfCRTEcu1110 control | 127 ± 4.2 % PfCRTEcu1110 control | 36 ± 1.4 % PfCRTEcu1110 control | 38 ± 1.5 % PfCRTEcu1110 control | 100 ± 3.7 % PfCRTDd2 control | 112 ± 4.3 % PfCRTDd2 control | 100 ± 3.7 % PfCRTDd2 control | 112 ± 4.3 % PfCRTDd2 control | 137 ± 4.6 % PfCRT3D7 control | 188 ± 5.7 % PfCRT3D7 control | 11 ± 0.1 % PfCRTEcu1110 control
DTSLKPIS [DS-8] | 57 ± 2.1 % PfCRTEcu1110 control | 42 ± 3.1 % PfCRTEcu1110 control | 28 ± 1.3 % PfCRTEcu1110 control |  |  | 40 ± 2.2 % PfCRTDd2 control | 28 ± 0.6 % PfCRTDd2 control | 19 ± 0.3 % PfCRTDd2 control | 127 ± 2.8 % PfCRTEcu1110 control | 140 ± 4.1 % PfCRTEcu1110 control |  |  | 95 ± 3.1 % PfCRTDd2 control | 112 ± 1.2 % PfCRTDd2 control |  |  | 135 ± 3.7 % PfCRT3D7 control | 180 ± 3.4 % PfCRT3D7 control | 
EFTPPVQ [EQ-7] | 44 ± 1.4 % PfCRTEcu1110 control | 32 ± 2.4 % PfCRTEcu1110 control | 22 ± 2.9 % PfCRTEcu1110 control | 14 ± 0.6 % PfCRTEcu1110 control | 8.0 ± 0.03 % PfCRTEcu1110 control | 40 ± 1.1 % PfCRTDd2 control | 28 ± 0.2 % PfCRTDd2 control | 17 ± 1.1 % PfCRTDd2 control | 129 ± 4.5 % PfCRTEcu1110 control | 136 ± 2.7 % PfCRTEcu1110 control | 39 ± 1.5 % PfCRTEcu1110 control | 41 ± 1.8 % PfCRTEcu1110 control | 96 ± 3.3 % PfCRTDd2 control | 112 ± 3.2 % PfCRTDd2 control | 96 ± 3.3 % PfCRTDd2 control | 112 ± 3.2 % PfCRTDd2 control | 136 ± 4.2 % PfCRT3D7 control | 188 ± 4.7 % PfCRT3D7 control | 10 ± 0.5 % PfCRTEcu1110 control
EFTPPVQA [EA-8] | 58 ± 1.1 % PfCRTEcu1110 control | 43 ± 1.6 % PfCRTEcu1110 control | 29 ± 2.5 % PfCRTEcu1110 control |  |  |  | 27 ± 0.9 % PfCRTDd2 control | 18 ± 0.2 % PfCRTDd2 control | 127 ± 3.1 % PfCRTEcu1110 control | 136 ± 4.1 % PfCRTEcu1110 control |  |  | 97 ± 2.2 % PfCRTDd2 control | 98 ± 1.9 % PfCRTDd2 control |  |  | 131 ± 2.9 % PfCRT3D7 control | 174 ± 3.3 % PfCRT3D7 control | 
